# From ChEMBL document CHEMBL3045751, “Structural Modification of the 6-Chloropyridyl Moiety in the Imidacloprid, Skeleton: Introduction of a Five-membered Heteroaromatic Ring and the Resulting Insecticidal Activity” (1993)
# Test system: Nephotettix cincticeps
# Experiment: Insecticidal activity against Nephotettix cincticeps (green rice leafhopper) in compound treated germinated rice seedlings assessed as mortality measured after 5 days
# Assay type: functional
row,Structure (SMILES),LC90 [ppm]
1,O=[N+]([O-])/C=C1\NCCN1Cc1ccc(Cl)nc1,0.32
2,O=[N+]([O-])/C=C1\NCCN1Cc1ccco1,200
3,O=[N+]([O-])/C=C1\NCCN1Cc1cccs1,200
4,O=[N+]([O-])/C=C1\NCCN1Cc1ccc[nH]1,200
5,O=[N+]([O-])/C=C1\NCCN1Cc1cccnc1,8
6,O=[N+]([O-])/C=C1\NCCN1Cc1cncs1,8
7,O=[N+]([O-])/C=C1\NCCN1Cc1ccccc1,200
8,O=[N+]([O-])/C=C1\NCCN1Cc1cnc(Cl)s1,0.32
9,O=[N+]([O-])/C=C1\NCCN1Cc1csc(Cl)n1,200
10,Cc1ncc(CN2CCN/C2=C\[N+](=O)[O-])s1,1.6
11,Cc1cc(CN2CCN/C2=C\[N+](=O)[O-])on1,1.6
12,O=[N+]([O-])/C=C1\NCCN1Cc1cc(Br)no1,1.6
13,Cn1cc(CN2CCN/C2=C\[N+](=O)[O-])cn1,1.6
14,O=[N+]([O-])/C=C1\NCCN1Cc1ccc(Br)s1,40
15,O=[N+]([O-])/N=C1\NCCN1Cc1ccc(Cl)nc1 [IMIDACLOPRID],0.32
16,O=[N+]([O-])/N=C1\NCCN1Cc1cnc(Cl)s1 [IMIDACLOTHIZ],0.32
